Experimental findings from BindingDB's records for patent US12310975 (Arvinas Operations, 2025) are described below.

This assay has as its target B-cell lymphoma 6 protein (Homo sapiens, UniProt P41182). As to the kind of experiment: BCL6 TR-FRET Protocol. As to the method: Assay buffer A: 50 mM HEPES pH 7.5, 125 mM NaCl, 0.01% TritonX.Assay buffer B (made fresh): buffer A+1 mM Glutathione (or 0.5 mM DTT).Assay buffer C (made fresh): buffer B+0.03% BSA.Black Proxy plates, 96 well.15 μl final reaction volumes (BCoR-Cy5 100 nM, SA-Eu 2 nM, BCL6-avitag 2 nM).134 μM BCL6-Avitag-Biotin stock: made fresh by adding 2 μl of BCL6-Avitag-Biotin to 31.5 ml Buffer C.1 mM BCoR-Cy5 peptide (LifeTein) stock in Dimethylformamide (DMF).300 nM BCoR-Cy5 working stock: made fresh by adding 4.5 μl of the 1 mM BCoR-Cy5 peptide stock to 15 ml Buffer B.10 μM Eu-Streptavidin (Lance Eu-W1024 Streptavidin, PerkinElmer) stock solution.6 nM Eu-Streptavidin working stock: made fresh by adding 9 μl Eu-Streptavidin stock solution to 15 ml Buffer A.Compounds were diluted to 10 mM. Twenty microliters of DMSO was aliquoted to each well of the microtiter plates. From the 10 mM compound stock, 8.7 ul was aliquoted to the 20 ul DMSO and 3-fold serial dilutions (12 pt […] tritration plate, 96 well, 100% DMSO) performed. Five ul from the titration plate wells was aliquoted to 45 ul Buff C (Intermediate dilution plates, 10% DMSO).Spot 1.5 μl compound titrations to 384-well plates in duplicate, and spot 3.5 μl [8.5 nM] BCL6-bio protein to each well. The plate was mix briefly, centrifuged, and incubated for 30 minutes at room temperature.Mix 14 mls of BCoR-Cy5 [300 nM] and 14 mls [6 nM] Eu-Streptavidin. Spot 10 μl BCoR-Cy5/SA-Eu (1:1) mix to each well. The plates were incubated for 2 hours and then read on an Envision plate reader.
(In general: In TR-FRET formats the signal depends on donor and acceptor labels being close together.)

As to `Cn1c(=O)c(OC2COC2)cc2cc(Nc3nc(N4CCC(CN5CCN(c6ccc7c(c6)C(=O)N(C6CCC(=O)NC6=O)C7=O)CC5)CC4)ncc3Cl)ccc21` (configuration not stated) [US12310975, Example 223], the half-inhibitory concentration (IC50) was > 100 nM.
Next, `CNC(=O)COc1cc2cc(Nc3cc(N4CCN(CC5CCN(c6ccc7c(c6)C(=O)N(C6CCC(=O)NC6=O)C7=O)CC5)CC4)ncc3Cl)ccc2n(C)c1=O` (configuration not stated) [US12310975, Example 253]: < 10 nM; `CNC(=O)COc1cc2cc(Nc3cc(N4CCN(C(C)(C)C5CCN(c6ccc7c(c6)C(=O)N(C6CCC(=O)NC6=O)C7=O)CC5)CC4)ncc3Cl)ccc2n(C)c1=O` (configuration not stated) [US12310975, Example 261]: > 100 nM.
The value for `CCC(C1CCN(c2ccc3c(c2)C(=O)N(C2CCC(=O)NC2=O)C3=O)CC1)N1CCN(c2ncc(Cl)c(Nc3ccc4c(c3)cc(OCC(=O)NC)c(=O)n4C)n2)CC1` (configuration not stated) [US12310975, Example 337] was < 10 nM; that for `CNC(=O)COc1cc2cc(Nc3nc(N4CCN(CC5CCN(c6cc(OC)cc7c6C(=O)N(C6CCC(=O)NC6=O)C7=O)CC5)CC4)ncc3Cl)ccc2n(C(C)C)c1=O` (configuration not stated) [US12310975, Example 414] was < 10 nM; that for `CNC(=O)COc1cc2cc(Nc3nc(N4CCC(CN5CCC6(CC5)CN(c5cccc(C(=O)NC7CCC(=O)NC7=O)c5F)C6)CC4)ncc3Cl)ccc2n(C(C)C)c1=O` (configuration not stated) [US12310975, Example 419] was < 10 nM.
Next, `CNC(=O)COc1cc2cc(Nc3nc(N4CC5(CCN(CC6CCN(c7cccc8c7C(=O)N(C7CCC(=O)NC7=O)C8=O)CC6)CC5)C4)ncc3Cl)ccc2n(C(C)C)c1=O` (configuration not stated) [US12310975, Example 426]: < 10 nM.
In the case of `CNC(=O)COc1cc2cc(Nc3nc(N4CCC(OC5CC6(CCN(c7cccc(C(=O)NC8CCC(=O)NC8=O)c7F)CC6)C5)CC4)ncc3Cl)ccc2n(C(C)C)c1=O` (configuration not stated) [US12310975, Example 433], the IC50 is > 100 nM.
As to `CNC(=O)COc1cc2cc(Nc3nc(N4CCC(OC5CC6(CCN(c7cccc(C(=O)NC8CCC(=O)NC8=O)c7OC)CC6)C5)CC4)ncc3Cl)ccc2n(C(C)C)c1=O` (configuration not stated) [US12310975, Example 449], the IC50 is > 100 nM.
Next, `CNC(=O)COc1cc2cc(Nc3nc(N4CCN(C(C)(C)C5CCN(c6ccc(OC)c(C(=O)NC7CCC(=O)NC7=O)c6F)CC5)CC4)ncc3Cl)ccc2n(C)c1=O` (configuration not stated) [US12310975, Example 468]: < 10 nM; `CNC(=O)COc1cc2cc(Nc3nc(N4CCC(C5(N6CCC(c7ccc8c(c7)C(=O)N(C7CCC(=O)NC7=O)C8=O)CC6)CC5)CC4)ncc3Cl)ccc2n(C)c1=O` (configuration not stated) [US12310975, Example 482]: < 10 nM.
With `CNC(=O)COc1cc2cc(Nc3nc(N4CCC(CN5CCCN(c6cccc(N7CCC(=O)NC7=O)c6)CC5)CC4)ncc3Cl)ccc2n(C(C)C)c1=O` [US12310975, Example 498], the IC50 is > 100 nM.

The IC50 is the point on the concentration scale where inhibition reaches its midpoint. Lower therefore signals greater potency in that assay.
